# Measured values reported in paper PMC11258615 (RSC Advances, 2024).
# “Also recorded” adds a separate entry of the source.
# Target: mushroom tyrosinase (Agaricus bisporus, UniProt C7FF04)
# Assay: Kinetic analysis of tyrosinase inhibition
# Details: L-DOPA 0.5 to 3 mM
# mushroom tyrosinase, sequence (C7FF04 1-392): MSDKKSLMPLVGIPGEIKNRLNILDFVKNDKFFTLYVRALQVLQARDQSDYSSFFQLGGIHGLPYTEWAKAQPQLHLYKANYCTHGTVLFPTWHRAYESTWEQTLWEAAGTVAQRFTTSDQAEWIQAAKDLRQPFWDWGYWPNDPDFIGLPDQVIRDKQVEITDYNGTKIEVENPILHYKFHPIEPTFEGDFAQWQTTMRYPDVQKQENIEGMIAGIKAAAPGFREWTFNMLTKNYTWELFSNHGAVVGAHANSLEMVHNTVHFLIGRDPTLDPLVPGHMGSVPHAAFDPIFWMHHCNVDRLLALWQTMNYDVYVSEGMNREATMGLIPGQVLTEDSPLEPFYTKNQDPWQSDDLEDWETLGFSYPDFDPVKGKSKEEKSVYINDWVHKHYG
compound,measurement,value
"Nc1ccc(-c2cc(-c3ccc(-c4cc(-c5ccc(N)cc5)nc(N)n4)cc3)nc(N)n2)cc1 [Compound 6P, 6,6′-(1,4-phenylene)bis[4-(4-aminophenyl)pyrimidin-2-amine]]",Type of tyrosinase inhibition (Lineweaver-Burk plots),mixed-type inhibitor; also recorded: mixed-type inhibition
